Test results taken from ChEMBL document CHEMBL5380810, “Scaffold Hybrid of the Natural Product Tanshinone I with Piperidine for the Discovery of a Potent NLRP3 Inflammasome Inhibitor” (J Med Chem, 2023).
Calls of active or inactive are those of the source. No cut-off for these calls is given here.

Experiments:
Peritoneal macrophage [1] = test: Antiinflammatory activity against LPS-stimulated mouse peritoneal macrophage assessed as IL-6 level at 2 uM treated for 3 hrs followed by ATP addition measured after 30 mins by ELISA method; format: functional, cell-based; conditions: time 3.5 hrs
Peritoneal macrophage [2] = test: Antiinflammatory activity against LPS-stimulated mouse peritoneal macrophage assessed as IL-1beta level at 2 uM treated for 3 hrs followed by ATP addition measured after 30 mins by ELISA method relative to control; format: functional; conditions: time 3.5 hrs
Peritoneal macrophage [3] = test: Antiinflammatory activity against LPS-stimulated mouse peritoneal macrophage assessed as TNF-alpha level at 2 uM treated for 3 hrs followed by ATP addition measured after 30 mins by ELISA method relative to control; format: functional; conditions: time 3.5 hrs
Peritoneal macrophage [4] = test: Cytotoxicity against mouse peritoneal macrophages at 4 uM incubated for 3.5 hrs by MTT assay; format: toxicity, cell-based
Peritoneal macrophage [5] = test: Antiinflammatory activity against LPS-stimulated mouse peritoneal macrophage assessed as IL-6 level at 2 uM treated for 3 hrs followed by ATP addition measured after 30 mins by ELISA method relative to control; format: functional; conditions: time 3.5 hrs

SMILES | Activity (Peritoneal macrophage [1]) | Activity (Peritoneal macrophage [2]) | Activity (Peritoneal macrophage [3]) | Activity (Peritoneal macrophage [4]) | Activity (Peritoneal macrophage [5])
Cc1cccc2c3c(ccc12)-c1oc2c(c1C(=O)C3=O)CCN([C@@H](C)CO)C2 | inactive | 49% | 40% | Non-Toxic | –
COC(=O)CC[C@@H](C(=O)OC)N1CCc2c(oc3c2C(=O)C(=O)c2c-3ccc3c(C)cccc23)C1 | – | 65% | 58% | Non-Toxic | 41%
Cc1cccc2c3c(ccc12)-c1oc2c(c1C(=O)C3=O)CCN([C@H](CO)Cc1ccccc1)C2 | – | 56% | 45% | Non-Toxic | 9%
COC(=O)CCN1CCc2c(oc3c2C(=O)C(=O)c2c-3ccc3c(C)cccc23)C1 | – | 87% | 46% | Non-Toxic | 34%
Cc1cccc2c3c(ccc12)-c1oc2c(c1C(=O)C3=O)CCN(CCCn1ccnc1)C2 | inactive | 95% | 17% | Non-Toxic | –
Cc1cccc2c3c(ccc12)-c1oc2c(c1C(=O)C3=O)CCN(CC(=O)N(C)C)C2 | – | 71% | 52% | Non-Toxic | 11%
Cc1cccc2c3c(ccc12)-c1oc2c(c1C(=O)C3=O)CCN(CCC(=O)N1CCOCC1)C2 | inactive | 92% | 10% | Non-Toxic | –
Cc1cccc2c3c(ccc12)-c1oc2c(c1C(=O)C3=O)CCN(CCN1CCN(C)CC1)C2 | inactive | 61% | 19% | Non-Toxic | –
COC(=O)[C@H](Cc1ccccc1)N1CCc2c(oc3c2C(=O)C(=O)c2c-3ccc3c(C)cccc23)C1 | inactive | 23% | 24% | Non-Toxic | –
Cc1cccc2c3c(ccc12)-c1oc2c(c1C(=O)C3=O)CCN(CC(=O)N1CCN(C)CC1)C2 | inactive | 77% | 35% | Non-Toxic | –
CC(C)(O)c1coc(S(=O)(=O)NC(=O)Nc2c3c(cc4c2CCC4)CCC3)c1 | inactive | 98% | 12% | – | –
COC(=O)[C@H](C)N1CCc2c(oc3c2C(=O)C(=O)c2c-3ccc3c(C)cccc23)C1 | inactive | 65% | 25% | Non-Toxic | –
Cc1cccc2c3c(ccc12)-c1oc2c(c1C(=O)C3=O)CCN(CCCN1CCN(C)CC1)C2 | inactive | 95% | 51% | Non-Toxic | –
Cc1cccc2c3c(ccc12)-c1oc2c(c1C(=O)C3=O)CCN(CCn1ccnc1)C2 | inactive | 96% | 29% | Non-Toxic | –
CNC(=O)[C@H](C)N1CCc2c(oc3c2C(=O)C(=O)c2c-3ccc3c(C)cccc23)C1 | inactive | 96% | 31% | Non-Toxic | –
Cc1cccc2c3c(ccc12)-c1oc2c(c1C(=O)C3=O)CCN(CCS(C)(=O)=O)C2 | inactive | 90% | 46% | Non-Toxic | –
CCCCN1CCc2c(oc3c2C(=O)C(=O)c2c-3ccc3c(C)cccc23)C1 | inactive | 38% | 14% | Non-Toxic | –
Cc1cccc2c3c(ccc12)-c1oc2c(c1C(=O)C3=O)CCN(CCCN1CCC(N3CCOCC3)CC1)C2 | inactive | 88% | 40% | Non-Toxic | –
Cc1cccc2c3c(ccc12)-c1oc2c(c1C(=O)C3=O)CCN(CCCN1CC[C@@H](O)C1)C2 | inactive | 92% | 33% | Non-Toxic | –
